{"source": "patent US9511072B2", "about": "“Methods of modulating cell proliferation and cyst formation in polycystic kidney and liver diseases” (The Medical College of Wisconsin, Inc., priority 2006, dated 2016)", "key": {"[1]": {"tested_on": "cystic BPK renal epithelial cells", "assay": "Cell counting of cystic BPK renal epithelial cells", "assay_type": "cell-based, mouse", "settings": "10 μM added daily, day 2, non-permissive conditions", "procedure": "For the cell counting experiments, the non-cystic Balb/C (+/+) and cystic BPK renal epithelial cells were seeded in 6-well dishes and changed into media lacking γ-IFN at 37° C. (non-permissive conditions) for at least 6 additional days prior to assessing any phenotypic analyses to ensure the loss of the T antigen (Sweeney W E et al. Am J Physiol Cell Physiol, 281:C1695-705, 2001). Cells were harvested by tryptic digestion and counted by light microscopy using a hemocytometer.\nThe cells in this experiment were transduced using the lentiviral vectors in the presence of γ-IFN (i.e., permissive state) and allowed to expand. Once the cells were expanded, the transduced cells were grown in the absence of γ-IFN (i.e., non-permissive state) for 10 days. The cells were harvested and counted to initiate the proliferation experiment."}, "[2]": {"tested_on": "20-HETE synthesis (cytochrome P450 4A and 4F isoforms)", "assay": "20-HETE production by renal microsomes of BPK mice dosed with HET-0016", "assay_type": "in vivo, mouse", "procedure": "Microsomes were isolated from the cystic BPK and non-cystic Balb/C mouse kidneys as described by Ito O et al. (Am J Physiol Regul Integr Comp Physiol, 280:R822-30, 2001). For the BPK and Balb/C cells, protein lysates were harvested by homogenization and subsequent sonication of the cell pellets. For the 20-HETE production assay, the isolated protein (500 μg) was incubated in 0.5 mL of 100 mM potassium phosphate buffer containing 40 μM cold arachidonic acid and 2 mM NADPH. In some samples, the 20-HETE synthesis inhibitor, HET-0016, was added at a concentration of 1 μM. The reaction was incubated at 37° C. and equilibrated with 100% O2 for 30 minutes. The reaction was stopped by acidification to pH 3.5 with 1M formic acid. The lipids were extracted in the presence of 20-HETE-d6 (2 ng) using 3:1 ethyl acetate:water and dried down under nitrogen. The samples were reconstituted in 1:1 methanol:water and the production of 20-HETE was measured using a liquid chromatograph-triple quadrupole mass spectrometer (ABI 3000, Applied Biosystems, Inc., Foster City, Calif.) as described in Williams J M et al. Hypertension, 49:687-94, 2007.\nTo further examine the biological role of 20-HETE in the epithelial cell proliferation, post-natal day 7, 10 or 21 day old BPK mice were treated with an intraperitoneal injection of vehicle or HET-0016 (10 mg/kg/day) 2 hours prior to sacrifice at which point the kidneys were removed for measurement of 20-HETE synthesis."}, "[3]": {"tested_on": "EGF receptor (EGFR) phosphorylation in REC12 cells", "assay": "Western blot of phosphorylated EGFR in normal REC12 cells", "assay_type": "cell-based, mouse", "settings": "10 μM, REC12 normal renal epithelial cells", "description": "REC11 cystic cell line is a conditionally immortalized epithelial collecting tubule (CT) cell line derived from the cystic kidneys of the BPK mouse model of human ARPKD crossed to the ImmortoMouse. The BPK mouse as a human ARPKD model has been described in Nauta J. et al., Pediatr Nephrol 1993, 7:163-172 and Nauta J. et al., Pediatr Res 1995, 37:755-763. The procedures for immortalization, cell isolation, cell culture and the complete phenotypic characterization of this cell line have been described in detail in Sweeney W. E. et al., Am J Physiol C Physiol 2001, 281:C1695-705. All analysis and experiments were performed on REC11 cells grown for a minimum 6 days under non-permissive conditions to eliminate residual Large T. REC12 cell line is a conditionally immortalized epithelial collecting tubule (CT) cell line derived from the wild-type Balb/C littermates. The Balb/C is the strain of mice in which the BPK mutation arose (Nauta J. et al., Pediatr Nephrol 1993, 7:163-172 and Nauta J. et al., Pediatr Res 1995, 37:755-763).\nREC11 cells (FIG. 2, lanes A and B) and control renal epithelial cells (REC12 cells: FIG. 2, lanes C and D) were grown for 10 days. Next, the cells were exposed to vehicle (lanes A and C) or 10 μM HET0016 (lanes B and D) and then harvested for assessment of the expression of phosphorylated EGFR by Western Blot analysis."}, "BPK mice": {"tested_on": "BPK mice", "assay": "Chronic HET-0016 treatment of cystic BPK mice (kidney mass, cysts)", "assay_type": "in vivo, mouse", "procedure": "This study was conducted using “immortalized” BPK mice as previous described by Sweeney W E et al. (Am J Physiol Cell Physiol, 281:C1695-705, 2001). In brief, BPK female heterozygotes (bpk^+/−) were bred with H-2k^b-ts-A58 transgenic males. Compound heterozygotes (bpk^+/−; H-2K^b-ts-A58^+/−) were identified by PCR and backcrossing to produce cystic offspring. Compound heterozygotes were mated to generate cystic (bpk^−/−; H-2K^b-ts-A58^+/±) and non-cystic (bpk^+/−; H-2K^b-ts-A58^+/±) offspring carrying at least one copy of the Immorto transgene (bpk^−/−; H-2K^b-ts-A58^+/±). All of the mice were genotyped for the H-2K^b-ts-A58 transgene by PCR analysis of DNA extracts from tail sections as described in Takacs-Jarrett M et al. Am J Physiol, 275:F802-11, 1998.\nKidney and liver tissues were harvested for qualitative analysis as described in Sweeney W E et al. (Kidney Int, 57:33-40, 2000) at postnatal day 21. Briefly, kidney and liver were fixed in 4.0% paraformaldehyde in phosphate buffer (pH 7.4) for 30 min at 4° C. Tissues were then washed, dehydrated through a graded series of acetone, and fixed in Immunobed embedding medium (Polysciences, Warrington, Pa.). Sections were cut at 4 μm, mounted on glass slides, and stained with hematoxylin or lectins staining the proximal tubule [Lotus tetragonobulus agglutinin (LTA)] and collecting tubule [Dolichol biflorus agglutinin (DBA)]. Segmental nephron cyst localization was characterized by light microscopy, and cystic lesions were quantitated by a morphometric index as described in Nakanishi K et al. (J Am Soc Nephrol, 12:719-25, 2001), Richards W G et al. (J Clin Invest, 101:935-9, 1998), Sweeney W E et al. (Kidney Int, 57:33-40, 2000), and Sweeney W E et al. (Kidney Int, 64:1310-9, 2003).\nWe administered HET-0016 (10 mg/kg/day), a specific 20-HETE synthesis inhibitor, intraperitoneally on a daily basis from post-natal day 7 to post-natal day 20. On day 21, the mice were sacrificed and the kidneys analyzed. […] Chronic blockade of 20-HETE synthesis lowered the KW/BW ratio to 9.4 in the HET-0016 treated BPK mice (Table 3)."}, "[4]": {"settings": "BPK (−/−), 10 mg/kg/day i.p., post-natal day 7-20, day 21"}}, "note": "“And” between values parts separate entries of the source, which are not always exact repeats. Identical values can stand only once. “Also recorded” adds a separate entry of the source.", "data": [{"substance": "N-hydroxy-N-(4-butyl-2-methylphenyl)-formamidine [HET0016]", "values": [{"measurement": "number of cystic BPK cells", "setting": "[1]", "result": "40,744±4,322"}, {"measurement": "effect on other metabolites of arachidonic acid formed by the kidney", "setting": "[2]; 10 mg/kg/day i.p.", "result": "no apparent inhibition"}, {"measurement": "inhibition of the formation of 20-HETE", "setting": "[2]; 10 mg/kg/day i.p. 2 hours prior to sacrifice, renal microsomes", "result": "> 95", "unit": "%"}, {"measurement": "production of 20-HETE", "setting": "[2]; 10 mg/kg/day i.p. 2 hours prior to sacrifice, renal microsomes, vehicle 1.06±0.33", "result": "0.04±0.02", "unit": "pmoles/min/mg protein"}, {"measurement": "phosphorylation of EGFR", "setting": "[3]", "result": "but not in normal renal epithelial cells; also recorded: lack of an effect"}, {"measurement": "Body weight", "setting": "BPK mice; [4]", "result": "10.3 ± 1.0^¥ g"}, {"measurement": "Kidney Weight", "setting": "BPK mice; [4]", "result": "0.97 ± 0.32", "unit": "g"}, {"measurement": "KW/BW", "setting": "BPK mice; BPK (−/−), 10 mg/kg/day i.p., post-natal day 7-20, day 21, 10 mg/kg/day", "result": "9.4% and 9.4 ± 3.3 %"}, {"measurement": "kidney size", "setting": "BPK mice; BPK mice, 10 mg/kg/day chronic daily, vehicle 1.08 g", "result": 0.43, "unit": "g"}, {"measurement": "kidney size vs vehicle-treated BPK mice (FIG. 4)", "setting": "BPK mice; BPK mice, 10 mg/kg/day i.p.", "result": "dramatically smaller"}, {"measurement": "reduction in body weight vs vehicle", "setting": "BPK mice; BPK mice, 10 mg/kg/day i.p.", "result": "not statistically significant"}, {"measurement": "reduction of KW/BW ratio vs vehicle", "setting": "BPK mice; BPK mice, 10 mg/kg/day i.p.", "result": 53, "unit": "%"}, {"measurement": "reduction of kidney size vs vehicle", "setting": "BPK mice; BPK mice, 10 mg/kg/day i.p.", "result": 56, "unit": "%"}, {"measurement": "size and number of renal cysts (histology)", "setting": "BPK mice; BPK mice, 10 mg/kg/day, day 21 kidneys, 10 mg/kg/day", "result": "marked reductions in the size and number of renal cysts; also recorded: dramatic reduction in the DBA-labeled collecting tubule cysts"}, {"measurement": "collecting tubule cystic index (CI)", "setting": "BPK mice; BPK mice, 10 mg/kg/day, untreated 4.7+/−0.6", "result": "1.93+/−0.2"}]}]}
